Assay results taken from US20100267561A1, “HERBICIDAL PYRIDAZINONE DERIVATIVES” (priority 2007, published 2010).

What was measured:
Experiment in all cases: Test B pre-/postemergence plant response
Format in all cases: in vivo
[1] = test system: wheat (Triticum aestivum); settings: for Wheat plant response rating: 8 g ai/ha
Procedure, shortened: (§1)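 Preemergence and postemergence (plants 2-18 cm, 1- to 4-leaf stage) applications used test chemicals in a non-phytotoxic solvent with surfactant. Plants were held in a greenhouse 13 to 15 days, then rated visually against controls on a 0-100 scale (0 no effect, 100 complete control).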

wild oat (Avena fatua) = settings: for Oat, Wild plant response rating: 8 g ai/ha
Procedure, shortened: as §1

soybean (Glycine max) = settings: for Soybean plant response rating: 8 g ai/ha
Procedure, shortened: as §1

[2] = test system: green foxtail (Setaria viridis); settings: for Foxtail, Green plant response rating: 8 g ai/ha
Procedure, shortened: as §1

[3] = test system: large crabgrass (Digitaria sanguinalis); settings: for Crabgrass, Large plant response rating: 8 g ai/ha
Procedure, shortened: as §1

[4] = test system: common ragweed (Ambrosia elation); settings: for Ragweed plant response rating: 8 g ai/ha
Procedure, shortened: as §1

[5] = test system: common (oilseed) sunflower (Helianthus annuus); settings: Preemergence
Procedure, shortened: as §1

kochia (Kochia scoparia) = settings: for Kochia plant response rating: 8 g ai/ha
Procedure, shortened: as §1

[6] = test system: lambsquarters (Chenopodium album); settings: for Lambsquarters plant response rating: 8 g ai/ha
Procedure, shortened: as §1

[7] = test system: morningglory (Ipomoea coccinea); settings: for Morningglory plant response rating: 8 g ai/ha
Procedure, shortened: as §1

[8] = test system: surinam grass (Brachiaria decumbens); settings: for Surinam Grass plant response rating: 8 g ai/ha
Procedure, shortened: as §1

[9] = test system: eastern black (E.B.) nightshade (Solanum ptycanthum); settings: Preemergence
Procedure, shortened: as §1

[10] = test system: blackgrass (Alopecurus myosuroides); settings: for Blackgrass plant response rating: 8 g ai/ha
Procedure, shortened: as §1

[11] = test system: goosegrass (Eleusine indica); settings: for Goosegrass plant response rating: 8 g ai/ha
Procedure, shortened: as §1

[12] = Postemergence, 16 g ai/ha, scale 0 to 100
[13] = Postemergence, 62 g ai/ha, scale 0 to 100, 0 no effect, 100 complete control
[14] = Preemergence, 16 g ai/ha, scale 0 to 100 (0 no effect, 100 complete control)
[15] = Preemergence, 31 g ai/ha, scale 0 to 100 (0 no effect, 100 complete control)
[16] = Preemergence, 62 g ai/ha, 0 to 100 scale, 0 no effect, 100 complete control
[17] = Postemergence, 31 g ai/ha, scale 0 to 100, 0 no effect, 100 complete control
[18] = Preemergence, 62 g ai/ha, scale 0 to 100
[19] = Preemergence, 31 g ai/ha, 0 to 100 scale, 0 no effect, 100 complete control
[20] = 16 g ai/ha, scale 0 to 100 (0 no effect, 100 complete control)

Cc1cc(-c2ccc(C(F)(F)F)c(F)c2)nn1-c1c(O)c(C(F)(F)F)nn(C)c1=O [Compound 44]
Wheat plant response rating ([1]; postemergence, 0-100 scale): 55 | Plant response rating, Wheat [1, 12]: 90 | Plant response rating, Wheat [1, 13]: 95 | Plant response rating, Wheat [1, 14]: 0 | Plant response rating, Wheat [1, 15]: 10 | Plant response rating, Wheat [1, 16]: 90 | Wheat plant response rating ([1]; Preemergence, scale 0 to 100): 0 | Oat, Wild plant response rating (wild oat (Avena fatua); postemergence, 0-100 scale): 90 | Plant response rating, Oat, Wild (wild oat (Avena fatua); [12]): 95 | Plant response rating, Oat, Wild (wild oat (Avena fatua); [17]): 100 | Plant response rating, Oat, Wild (wild oat (Avena fatua); [13]): 100 | Plant response rating, Oat, Wild (wild oat (Avena fatua); [14]): 80 | Plant response rating, Oat, Wild (wild oat (Avena fatua); [15]): 85 | Plant response rating, Oat, Wild (wild oat (Avena fatua); [18]): 90 | Oat, Wild plant response rating (wild oat (Avena fatua); Preemergence, scale 0 to 100): 25 | Soybean plant response rating (soybean (Glycine max); postemergence, 0-100 scale): 0 | Plant response rating, Soybean (soybean (Glycine max); [12]): 0 | Plant response rating, Soybean (soybean (Glycine max); [13]): 0 | Plant response rating, Soybean (soybean (Glycine max); [15]): 70 | Plant response rating, Soybean (soybean (Glycine max); [18]): 90 | Soybean plant response rating (soybean (Glycine max); Preemergence, scale 0 to 100): 0 | Foxtail, Green plant response rating ([2]; postemergence, 0-100 scale): 75 | Plant response rating, Foxtail, Green [2, 12]: 95 | Plant response rating, Foxtail, Green [2, 17]: 95 | Plant response rating, Foxtail, Green [2, 13]: 100 | Plant response rating, Foxtail, Green [2, 14]: 98 | Plant response rating, Foxtail, Green [2, 19]: 100 | Plant response rating, Foxtail, Green [2, 18]: 100 | Foxtail, Green plant response rating ([2]; Preemergence, scale 0 to 100): 40 | Crabgrass, Large plant response rating ([3]; postemergence, 0-100 scale): 60 | Plant response rating, Crabgrass, Large [3, 12]: 65 | Plant response rating, Crabgrass, Large [3, 17]: 90 | Plant response rating, Crabgrass, Large [3, 13]: 98 | Plant response rating, Crabgrass, Large [3, 14]: 0 | Plant response rating, Crabgrass, Large [3, 19]: 0 | Plant response rating, Crabgrass, Large [3, 18]: 0 | Crabgrass, Large plant response rating ([3]; Preemergence, scale 0 to 100): 0 | Ragweed plant response rating ([4]; postemergence, 0-100 scale): 0 | Plant response rating, Ragweed [4, 12]: 0 | Plant response rating, Ragweed [4, 17]: 0 | Plant response rating, Ragweed [4, 13]: 0 | Plant response rating, Ragweed [4, 14]: 0 | Plant response rating, Ragweed [4, 15]: 0 | Plant response rating, Ragweed [4, 18]: 20 | Ragweed plant response rating ([4]; Preemergence, scale 0 to 100): 0 | Plant response rating, Sunflower [5, 20]: 0 | Plant response rating, Sunflower ([5]; 62 g ai/ha, scale 0 to 100): 0 | Sunflower plant response rating ([5]; 8 g ai/ha, scale 0 to 100): 0 | Kochia plant response rating (kochia (Kochia scoparia); postemergence, 0-100 scale): 0 | Plant response rating, Kochia (kochia (Kochia scoparia); [12]): 0 | Plant response rating, Kochia (kochia (Kochia scoparia); [17]): 0 | Plant response rating, Kochia (kochia (Kochia scoparia); [13]): 0 | Plant response rating, Kochia (kochia (Kochia scoparia); [14]): 0 | Plant response rating, Kochia (kochia (Kochia scoparia); [19]): 0 | Plant response rating, Kochia (kochia (Kochia scoparia); [18]): 100 | Kochia plant response rating (kochia (Kochia scoparia); Preemergence, scale 0 to 100): 0 | Lambsquarters plant response rating ([6]; postemergence, 0-100 scale): 0 | Plant response rating, Lambsquarters [6, 12]: 0 | Plant response rating, Lambsquarters [6, 17]: 0 | Plant response rating, Lambsquarters [6, 13]: 0 | Plant response rating, Lambsquarters [6, 14]: 0 | Plant response rating, Lambsquarters [6, 19]: 0 | Plant response rating, Lambsquarters [6, 18]: 0 | Lambsquarters plant response rating ([6]; Preemergence, scale 0 to 100): 0 | Morningglory plant response rating ([7]; postemergence, 0-100 scale): 0 | Plant response rating, Morningglory [7, 12]: 0 | Plant response rating, Morningglory [7, 17]: 0 | Plant response rating, Morningglory [7, 13]: 0 | Plant response rating, Morningglory [7, 14]: 0 | Plant response rating, Morningglory [7, 18]: 0 | Morningglory plant response rating ([7]; Preemergence, scale 0 to 100): 0 | Surinam Grass plant response rating ([8]; postemergence, 0-100 scale): 98 | Plant response rating, Surinam Grass [8, 12]: 100 | Plant response rating, Surinam Grass [8, 13]: 100 | Plant response rating, Surinam Grass [8, 14]: 0 | Plant response rating, Surinam Grass [8, 15]: 0 | Plant response rating, Surinam Grass [8, 16]: 20 | Surinam Grass plant response rating ([8]; Preemergence, scale 0 to 100): 0 | Plant response rating, Nightshade, E. B. [9, 20]: 0 | Plant response rating, Nightshade, E. B. ([9]; 31 g ai/ha, scale 0 to 100 (0 no effect, 100 complete control)): 0 | Plant response rating, Nightshade, E. B. ([9]; 62 g ai/ha, scale 0 to 100): 55 | Nightshade, E. B. plant response rating ([9]; 8 g ai/ha, scale 0 to 100): 0 | Blackgrass plant response rating ([10]; postemergence, 0-100 scale): 85 | Plant response rating, Blackgrass [10, 12]: 90 | Plant response rating, Blackgrass [10, 17]: 98 | Plant response rating, Blackgrass [10, 13]: 98 | Plant response rating, Blackgrass [10, 14]: 100 | Plant response rating, Blackgrass [10, 19]: 100 | Plant response rating, Blackgrass [10, 18]: 100 | Blackgrass plant response rating ([10]; Preemergence, scale 0 to 100): 90 | Goosegrass plant response rating ([11]; postemergence, 0-100 scale): 60 | Plant response rating, Goosegrass [11, 12]: 60 | Plant response rating, Goosegrass [11, 17]: 75 | Plant response rating, Goosegrass [11, 13]: 90 | Plant response rating, Goosegrass [11, 14]: 0 | Plant response rating, Goosegrass [11, 19]: 0 | Plant response rating, Goosegrass [11, 18]: 0 | Goosegrass plant response rating ([11]; Preemergence, scale 0 to 100): 0
